Reference: patent US6479673B1, “Antiretroviral enantiomeric nucleotide analogs” (Institute of Organic Chemistry and Biochemistry of the …, priority 1992, dated 2002)
In brackets after ≈: the same amount, converted by molar mass.

System: Moloney murine sarcoma virus (MSV)
Experiment: MSV-induced transformation of C3H/3T3 cells
Format: cell-based
Details: concentration inhibiting MSV-induced cell transformation by 50%
Experimental: The cells were seeded in 1-ml-wells of a 48-well microtiter plate and exposed to 80 PFU (plaque forming units) for 60-90 minutes. Then, the virus was removed and culture medium containing appropriate concentrations of the test compounds were added (1 ml per well). At day 6 post infection, MSV-induced transformation of the cell culture was examined microscopically.

Row | Structure (SMILES) | EC50 MSV
1 | Nc1ncnc2c1ncn2C[C@H](CF)OCP(=O)(O)O [(R)-FPMPA, reference compound] | >100 µg/mL
2 | Nc1nc(N)c2ncn(C[C@H](CF)OCP(=O)(O)O)c2n1 [(R)-FPMPDAP, reference compound] | 1.7 µg/mL (≈ 5.31 µM)
3 | C[C@H](Cn1cnc2c(N)ncnc21)OCP(=O)(O)O [(R)-PMPA, 9-(R)-(2-Phosphonomethoxypropyl)adenine] | 0.99 µg/mL (≈ 3.45 µM)
4 | C[C@H](Cn1cnc2c(=O)[nH]c(N)nc21)OCP(=O)(O)O [(R)-PMPG, 9-(R)-(2-Phosphonomethoxypropyl)guanine] | 0.15 µg/mL (≈ 0.495 µM)
5 | Nc1ncnc2c1ncn2C[C@@H](CF)OCP(=O)(O)O [(S)-FPMPA] | 1.5 µg/mL (≈ 4.91 µM)
6 | Nc1nc(N)c2ncn(C[C@@H](CF)OCP(=O)(O)O)c2n1 [(S)-FPMPDAP] | 1.7 µg/mL (≈ 5.31 µM)

System: retrovirus replication
Experiment: Anti-retrovirus activity in vitro (conclusions on HIV and MSV tests)
Format: cell-based
Details: in vitro

Row | Structure (SMILES) | concentration markedly inhibitory to retrovirus replication
7 | C[C@H](Cn1cnc2c(N)ncnc21)OCP(=O)(O)O [(R)-PMPA, 9-(R)-(2-Phosphonomethoxypropyl)adenine] | 1 to 2 µg/mL

System: HIV-1
Experiment: HIV-1 induced cytopathicity in MT-4 cells
Format: cell-based, human immunodeficiency virus type 1
Details: MT-4 cells; concentration inhibiting HIV-induced cytopathicity by 50%
Experimental: (§1) The activity of the compounds against HIV-1 and HIV-2 induced cytopathicity was examined in human lymphocyte MT-4 cells. […] The infected cell cultures were then incubated at 37° C. for 5 days in a humidified CO2-controlled incubator. Then, the cytopathicity of the virus was examined by determination of MT-4 cell viability by trypan blue dye staining.

Row | Structure (SMILES) | EC50 HIV-1
8 | Nc1ncnc2c1ncn2C[C@H](CF)OCP(=O)(O)O [(R)-FPMPA, reference compound] | 83 µg/mL (≈ 272 µM)
9 | Nc1nc(N)c2ncn(C[C@H](CF)OCP(=O)(O)O)c2n1 [(R)-FPMPDAP, reference compound] | 1.4 µg/mL (≈ 4.37 µM)
10 | C[C@H](Cn1cnc2c(N)ncnc21)OCP(=O)(O)O [(R)-PMPA, 9-(R)-(2-Phosphonomethoxypropyl)adenine] | 1.7 µg/mL (≈ 5.92 µM)
11 | C[C@H](Cn1cnc2c(=O)[nH]c(N)nc21)OCP(=O)(O)O [(R)-PMPG, 9-(R)-(2-Phosphonomethoxypropyl)guanine] | 1.8 µg/mL (≈ 5.94 µM)
12 | Nc1ncnc2c1ncn2C[C@@H](CF)OCP(=O)(O)O [(S)-FPMPA] | 2.7 µg/mL (≈ 8.85 µM)
13 | Nc1nc(N)c2ncn(C[C@@H](CF)OCP(=O)(O)O)c2n1 [(S)-FPMPDAP] | 4.8 µg/mL (≈ 15 µM)

System: HIV-2
Experiment: HIV-2 induced cytopathicity in MT-4 cells
Format: cell-based, human immunodeficiency virus type 2
Details: MT-4 cells; concentration inhibiting HIV-induced cytopathicity by 50%
Experimental: as §1

Row | Structure (SMILES) | EC50 HIV-2
14 | Nc1ncnc2c1ncn2C[C@H](CF)OCP(=O)(O)O [(R)-FPMPA, reference compound] | 54 µg/mL (≈ 177 µM)
15 | Nc1nc(N)c2ncn(C[C@H](CF)OCP(=O)(O)O)c2n1 [(R)-FPMPDAP, reference compound] | 1.5 µg/mL (≈ 4.68 µM)
16 | C[C@H](Cn1cnc2c(=O)[nH]c(N)nc21)OCP(=O)(O)O [(R)-PMPG, 9-(R)-(2-Phosphonomethoxypropyl)guanine] | 1.7 µg/mL (≈ 5.61 µM)
17 | Nc1ncnc2c1ncn2C[C@@H](CF)OCP(=O)(O)O [(S)-FPMPA] | 2.6 µg/mL (≈ 8.52 µM)
18 | Nc1nc(N)c2ncn(C[C@@H](CF)OCP(=O)(O)O)c2n1 [(S)-FPMPDAP] | 3.3 µg/mL (≈ 10.3 µM)

System: Moloney murine sarcoma virus (MSV)
Experiment: MSV infection in newborn NMRI mice, intraperitoneal administration
Format: in vivo
Details: 2 mg/kg single dose i.p., NMRI mice
Experimental: Two gram newborn NMRI mice were injected intramuscularly in the left hind leg with 50 μl of 250-fold diluted stock preparation of Moloney murine sarcoma virus. […] Another group of mice (20 animals) was administered RPMI-1640 medium as placebo. All compounds were solubilized in RPMI-1640 medium. The mice were observed daily for 20 days and the day of tumor initiation and the day of animal death was recorded for each animal. Statistical analyses were performed by calculating the standard deviation.

Row | Structure (SMILES) | Mean day of tumor initiation
19 | C[C@H](Cn1cnc2c(N)ncnc21)OCP(=O)(O)O [(R)-PMPA, 9-(R)-(2-Phosphonomethoxypropyl)adenine] | 5.3 ± 1.1 days

Same assay, conditions: 5 mg/kg single dose i.p.

Row | Structure (SMILES) | percentage of MSV-infected mice still alive at day 20 post infection | percentage of MSV-infected mice without tumor at day 20 post infection
20 | C[C@H](Cn1cnc2c(N)ncnc21)OCP(=O)(O)O [(R)-PMPA, 9-(R)-(2-Phosphonomethoxypropyl)adenine] | (20%) | (10%)

Same assay, conditions: 5 mg/kg single dose i.p., NMRI mice

Row | Structure (SMILES) | Mean day of tumor initiation
21 | C[C@H](Cn1cnc2c(N)ncnc21)OCP(=O)(O)O [(R)-PMPA, 9-(R)-(2-Phosphonomethoxypropyl)adenine] | 7.11 ± 1.5 days

Same assay, conditions: 10 mg/kg single dose i.p.

Row | Structure (SMILES) | percentage of MSV-infected mice still alive at day 20 post infection | percentage of MSV-infected mice without tumor at day 20 post infection
22 | C[C@H](Cn1cnc2c(N)ncnc21)OCP(=O)(O)O [(R)-PMPA, 9-(R)-(2-Phosphonomethoxypropyl)adenine] | (85%) | (75%)
23 | Nc1ncnc2c1ncn2C[C@@H](CF)OCP(=O)(O)O [(S)-FPMPA] | (40%) | –
24 | Nc1nc(N)c2ncn(C[C@@H](CF)OCP(=O)(O)O)c2n1 [(S)-FPMPDAP] | (33%) | –

Same assay, conditions: 10 mg/kg single dose i.p., NMRI mice

Row | Structure (SMILES) | Mean day of tumor initiation
25 | Nc1nc(N)c2ncn(C[C@H](CF)OCP(=O)(O)O)c2n1 [(R)-FPMPDAP, reference compound] | 5.6 ± 1.0 days
26 | C[C@H](Cn1cnc2c(N)ncnc21)OCP(=O)(O)O [(R)-PMPA, 9-(R)-(2-Phosphonomethoxypropyl)adenine] | 12.9 ± 2.2 days
27 | Nc1ncnc2c1ncn2C[C@@H](CF)OCP(=O)(O)O [(S)-FPMPA] | 7.7 ± 2.4 days
28 | Nc1nc(N)c2ncn(C[C@@H](CF)OCP(=O)(O)O)c2n1 [(S)-FPMPDAP] | 8.5 ± 2.6 days

Same assay, conditions: 20 mg/kg single dose i.p.

Row | Structure (SMILES) | percentage of MSV-infected mice still alive at day 20 post infection | percentage of MSV-infected mice without tumor at day 20 post infection
29 | C[C@H](Cn1cnc2c(N)ncnc21)OCP(=O)(O)O [(R)-PMPA, 9-(R)-(2-Phosphonomethoxypropyl)adenine] | (100%) | (80%)
30 | Nc1ncnc2c1ncn2C[C@@H](CF)OCP(=O)(O)O [(S)-FPMPA] | (55%) | (31%)

Same assay, conditions: 20 mg/kg single dose i.p., NMRI mice

Row | Structure (SMILES) | Mean day of tumor initiation | Mean day of animal death
31 | Nc1ncnc2c1ncn2C[C@H](CF)OCP(=O)(O)O [(R)-FPMPA, reference compound] | 4.3 ± 0.48 days | –
32 | C[C@H](Cn1cnc2c(N)ncnc21)OCP(=O)(O)O [(R)-PMPA, 9-(R)-(2-Phosphonomethoxypropyl)adenine] | 13.5 ± 3.5 days | >20 days
33 | Nc1ncnc2c1ncn2C[C@@H](CF)OCP(=O)(O)O [(S)-FPMPA] | 11 ± 2.7 days | –

Same assay, conditions: 25 mg/kg single dose i.p.

Row | Structure (SMILES) | percentage of MSV-infected mice still alive at day 20 post infection
34 | Nc1nc(N)c2ncn(C[C@H](CF)OCP(=O)(O)O)c2n1 [(R)-FPMPDAP, reference compound] | (15%)

Same assay, conditions: 25 mg/kg single dose i.p., NMRI mice

Row | Structure (SMILES) | Mean day of tumor initiation
35 | Nc1nc(N)c2ncn(C[C@H](CF)OCP(=O)(O)O)c2n1 [(R)-FPMPDAP, reference compound] | 7.7 ± 1.9 days
36 | Nc1nc(N)c2ncn(C[C@@H](CF)OCP(=O)(O)O)c2n1 [(S)-FPMPDAP] | 8.3 ± 1.8 days

Same assay, conditions: 50 mg/kg single dose i.p.

Row | Structure (SMILES) | percentage of MSV-infected mice still alive at day 20 post infection | percentage of MSV-infected mice without tumor at day 20 post infection
37 | Nc1nc(N)c2ncn(C[C@H](CF)OCP(=O)(O)O)c2n1 [(R)-FPMPDAP, reference compound] | (10%) | –
38 | C[C@H](Cn1cnc2c(N)ncnc21)OCP(=O)(O)O [(R)-PMPA, 9-(R)-(2-Phosphonomethoxypropyl)adenine] | (100%) | (100%)
39 | Nc1ncnc2c1ncn2C[C@@H](CF)OCP(=O)(O)O [(S)-FPMPA] | (100%) | (100%)
40 | Nc1nc(N)c2ncn(C[C@@H](CF)OCP(=O)(O)O)c2n1 [(S)-FPMPDAP] | (67%) | (17%)

Same assay, conditions: 50 mg/kg single dose i.p., NMRI mice

Row | Structure (SMILES) | Mean day of tumor initiation
41 | Nc1ncnc2c1ncn2C[C@H](CF)OCP(=O)(O)O [(R)-FPMPA, reference compound] | 4.7 ± 0.67 days
42 | Nc1nc(N)c2ncn(C[C@H](CF)OCP(=O)(O)O)c2n1 [(R)-FPMPDAP, reference compound] | 7.75 ± 1.3 days
43 | C[C@H](Cn1cnc2c(N)ncnc21)OCP(=O)(O)O [(R)-PMPA, 9-(R)-(2-Phosphonomethoxypropyl)adenine] | >20 days
44 | Nc1ncnc2c1ncn2C[C@@H](CF)OCP(=O)(O)O [(S)-FPMPA] | >20 days
45 | Nc1nc(N)c2ncn(C[C@@H](CF)OCP(=O)(O)O)c2n1 [(S)-FPMPDAP] | 11.0 ± 2.1 days

Same assay, conditions: dose of 50 mg/kg i.p.

Row | Structure (SMILES) | antiretroviral activity in vivo (in words)
46 | Nc1ncnc2c1ncn2C[C@@H](CF)OCP(=O)(O)O [(S)-FPMPA] | no marked antiretroviral activity in vivo

Same assay, conditions: single dose of 50 mg/kg i.p.

Row | Structure (SMILES) | protection against MSV-induced tumor development (in words)
47 | C[C@H](Cn1cnc2c(N)ncnc21)OCP(=O)(O)O [(R)-PMPA, 9-(R)-(2-Phosphonomethoxypropyl)adenine] | full protection

System: C3H/3T3 cells
Experiment: Microscopic alteration of C3H/3T3 cell culture morphology
Format: cell-based, murine
Details: concentration that results in a microscopic alteration of C3H/3T3 cell culture morphology

Row | Structure (SMILES) | MIC
48 | Nc1ncnc2c1ncn2C[C@H](CF)OCP(=O)(O)O [(R)-FPMPA, reference compound] | >100 µg/mL
49 | Nc1nc(N)c2ncn(C[C@H](CF)OCP(=O)(O)O)c2n1 [(R)-FPMPDAP, reference compound] | >100 µg/mL
50 | C[C@H](Cn1cnc2c(N)ncnc21)OCP(=O)(O)O [(R)-PMPA, 9-(R)-(2-Phosphonomethoxypropyl)adenine] | >100 µg/mL
51 | C[C@H](Cn1cnc2c(=O)[nH]c(N)nc21)OCP(=O)(O)O [(R)-PMPG, 9-(R)-(2-Phosphonomethoxypropyl)guanine] | 40 µg/mL (≈ 132 µM)
52 | Nc1ncnc2c1ncn2C[C@@H](CF)OCP(=O)(O)O [(S)-FPMPA] | >100 µg/mL
53 | Nc1nc(N)c2ncn(C[C@@H](CF)OCP(=O)(O)O)c2n1 [(S)-FPMPDAP] | >100 µg/mL

System: MT-4 cells
Experiment: MT-4 cell viability (cytotoxicity)
Format: cell-based, human
Details: concentration reducing MT-4 cell viability by 50%
Experimental: The activity of the compounds against HIV-1 and HIV-2 induced cytopathicity was examined in human lymphocyte MT-4 cells. […]. The infected cell cultures were then incubated at 37° C. for 5 days in a humidified CO2-controlled incubator. Then, the cytopathicity of the virus was examined by determination of MT-4 cell viability by trypan blue dye staining. The results are summarized in Table 1 in comparison with the data on the prototype compounds.

Row | Structure (SMILES) | CC50
54 | Nc1ncnc2c1ncn2C[C@H](CF)OCP(=O)(O)O [(R)-FPMPA, reference compound] | >100 µg/mL
55 | Nc1nc(N)c2ncn(C[C@H](CF)OCP(=O)(O)O)c2n1 [(R)-FPMPDAP, reference compound] | >100 µg/mL
56 | C[C@H](Cn1cnc2c(N)ncnc21)OCP(=O)(O)O [(R)-PMPA, 9-(R)-(2-Phosphonomethoxypropyl)adenine] | >100 µg/mL
57 | C[C@H](Cn1cnc2c(=O)[nH]c(N)nc21)OCP(=O)(O)O [(R)-PMPG, 9-(R)-(2-Phosphonomethoxypropyl)guanine] | >100 µg/mL
58 | Nc1ncnc2c1ncn2C[C@@H](CF)OCP(=O)(O)O [(S)-FPMPA] | >100 µg/mL
59 | Nc1nc(N)c2ncn(C[C@@H](CF)OCP(=O)(O)O)c2n1 [(S)-FPMPDAP] | >100 µg/mL
